From patent EP4733299A1, “SULFUR-CONTAINING FUSED RING COMPOUND, PHARMACEUTICAL COMPOSITION CONTAINING SAME, AND PREPARATION METHOD THEREFOR AND USE THEREOF” (Shenzhen Braegen Pharmaceutical Co., Ltd., priority 2023, dated 2024)

What was measured:
Tau aggregates = Tau aggregates (Homo sapiens, UniProt P10636); test: Fluorescence binding assay with protein aggregates (fluorescence spectrophotometer); conditions: 5 min; for Ratio / α-Synuclein: Kd for Tau to Kd for α-Synuclein; for Kd: Tau aggregates, compound 5 µM, 37°C
Protocol: First, the compound was a final concentration of 5 µM by dissolved in 50 mM Tris-buffer (pH 7.0) with 0.0025% (v/v) DMSO. Then, Aβ, α-Synuclein, and Tau aggregates were added, with their final concentrations being 0.02, 0.04, 0.08, 0.16, 0.32, 0.64, and 1.28 µM, respectively. Subsequently, the fluorescence measurements were detected using a fluorescence spectrophotometer (Horiba, Fluorolog3).
Tau aggregates: The cDNA sequence of Tau was inserted into a plasmid carrying a GST tag, which was then transfected into BL21 bacteria for protein expression. Bacterial pellets were resuspended in high-salt buffer (0.75 M NaCl, 50 mM Tris, pH 7.4, 1 mM EDTA), sonicated, and centrifuged at 70,000 x g for 30 min. The supernatants were applied onto a Glutathione sepharose beads column (GE Healthcare) and purified by GST tag. Thrombin was used to remove the GST tag. The protein was dialyzed with FPLC buffer (50 mM NaCl, 50 mM Tris- HCl pH 7.4). The protein was filtered through a 0.22 µm syringe filter. The concentration of Tau was adjusted to 3 mg/mL, 12.5 µM heparin was added, and the mixture was shaken at 37 °C and 300 rpm for 7 days to prepare Tau aggregates. • Incubation Concentrations: 0.02, 0.04, 0.08, 0.16, 0.32, 0.64, and 1.28 µM; • Incubation Temperature: 37°C; • Incubation Duration: 5 min; • Detection Wavelengths: [formula]
Statistical analysis was performed using GraphPad Prism® version 8.2.1.

α-Syn aggregated neurons = test: Staining of primary cultured neurons infected with AAV α-Syn and treated with α-Syn PFFs, fluorescence microscopy; type: cell-based, Sprague-Dawley rats; conditions: compounds 0.1 mM; Fig. 1
Protocol: Primary cultured neurons were infected with adeno-associated virus (AAV) encoding a-Syn for 7 days and then treated with a-Syn PFFs. The candidate compounds were added to the primary neurons with the indicated aggregates and analyzed using fluorescence microscopy.
Primary hippocampal neurons were isolated from […] pregnant rats. The Sprague-Dawley rats were used at embryonic E18 days. The cortical tissue was isolated, dissociated, and incubated with 5 ml of D-Hanks containing 0.25% trypsin for 5 min at 37 °C in a humidified atmosphere of 5% CO2, centrifuged at 1000 x g for 5 min after addition of 4 ml of the neuronal plating medium containing DMEM/F12 with 10% fetal bovine serum. The 1 × 10^5 cells were plated in 6-well plates for further process. DIV7 neurons were infected with AAV α-Syn FL virus and at DIV12, the neurons were transduced with 100 ng/ml α-Syn PFF, α-Syn 1-140 were incubated with the cultured primary neurons in sterile PBS to a final concentration of 0.1 mg/ml. Sonicated PFFs, or an equivalent volume of the monomer as a control, were transferred into pre-warmed neuronal medium at a final concentration of 100 ng/ml. The samples were immune-stained with anti-p-α-Syn S129 (Abcam; Catalog No.: ab59264) (pseudo-colors were converted to red) to detect a-Syn aggregates and then stained with ThT (Sigma; Catalog No.: S96200) or compounds (0.1 mM).

a-Syn aggregates = biological target: T1, a-Syn aggregates (Homo sapiens, UniProt P37840, A53T); test: Binding specificity on brain slices of rotenone-treated SNCA transgenic mice; conditions: brain slices, rotenone-treated SNCA Tg mice; Fig. 2
T1 construct: tissue The Jackson Laboratory 017682; host or cells: brain sections of rotenone-treated transgenic mice
Protocol: To further explore whether the positive compounds selectively bind to Lewy bodies, brain slices from mice were used to test the binding specificity assays.
Staining with a-Synuclein protein coding gene (SNCA) transgenic mice (the Jackson Laboratory; stock numbers: 017682) were treated with rotenone (Oral gavage of rotenone under the following protocol: Mice were treated with 0.1 mL/25 g of vehicle containing 1% methylcellulose (Sigma, Catalog No.: M0512) and 1.25% chloroform (Sigma, Catalog No.: 2432) or a solution containing 0.625 mg/mL of rotenone (ULTRA Scientific, Catalog No.: PST-890) with 1% methylcellulose and 1.25% chloroform. We prepared rotenone solution by dissolving rotenone in chloroform and then diluting into 1% methylcellulose solution while mixing vigorously. Rotenone or vehicle control was orally administered with a 1.2 x 60 mm gavage (Unimed, Switzerland) once a day for 5 days/week, consecutively for 3 months.), which contains abundant LB-like inclusions. Furthermore, brain slices from NFT abundant Tau P301S mice and Aβ-enriched 5 x FAD mice were also used separately.
The brain slices were fixed and incubated for 12 h at 4 °C with primary antibodies followed by incubation with Alexa Fluor 568-, Alexa Fluor 488-, or Alexa Fluor 647-conjugated secondary antibodies (Invitrogen) for 3 h at room temperature. Then stained with ThS (Sigma, Catalog No.: T1892) or candidate compounds at room temperature, 4',6-diamidino-2-phenylindole (DAPI, 1 µg/ml) (Sigma-Aldrich) was used for the nuclear staining. The slides were imaged with Olympus FluoView FV1000 confocal laser scanning microscope using Olympus FluoView software to acquire data.

p-α-Syn S129 = biological target: T2, p-α-Syn S129 (Homo sapiens, UniProt P37840); test: Ex vivo staining of human DLB patient brain sections; type: binding; conditions: DLB patient brain slides; Fig. 3
T2 construct: from tissue; host or cells: human DLB patient brain sections
Protocol: The ex vivo screening was extended into human DLB, and AD patient samples. Neurodegenerative diseases of DLB belong to synucleino-pathies with well-defined Lewy bodies. Therefore, the positive compounds should show robust signals with LBs and LNs.
For immunohistochemical staining, deparaffinized and antigen-retrieved 20 µm-thick human brain sections were treated with 0.3% H2O2 at room temperature for 10 min. Subsequently, the sections were washed in PBS with 0.3% Triton X-100 3 times and then blocked with 1% BSA for 30 min, followed by overnight incubation with anti-Aβ/AT8/α-Syn pS129 antibody at 4 °C. The signal was developed using a Histostain-SP kit (Invitrogen, Catalog No.: 95-9943). After washing, the sections were covered with a glass cover using mounting solution.

Sequence of Tau aggregates (P10636 with tags, fused parts or gaps): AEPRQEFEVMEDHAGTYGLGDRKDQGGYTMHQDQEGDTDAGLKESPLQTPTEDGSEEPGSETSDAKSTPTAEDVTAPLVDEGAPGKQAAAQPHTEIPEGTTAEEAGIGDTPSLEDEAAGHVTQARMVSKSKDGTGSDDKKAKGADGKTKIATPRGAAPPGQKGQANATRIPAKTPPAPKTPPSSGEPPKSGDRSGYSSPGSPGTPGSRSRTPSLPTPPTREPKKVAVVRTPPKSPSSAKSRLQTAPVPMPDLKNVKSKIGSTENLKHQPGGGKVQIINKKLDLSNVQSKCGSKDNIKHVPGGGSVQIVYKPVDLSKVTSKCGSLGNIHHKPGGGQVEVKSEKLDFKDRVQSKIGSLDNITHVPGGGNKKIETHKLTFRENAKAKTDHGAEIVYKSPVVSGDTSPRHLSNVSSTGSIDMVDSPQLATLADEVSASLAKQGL

| Compound | Ratio / α-Synuclein (Tau aggregates) | Kd (Tau aggregates) [nM] | signals in α-Syn aggregated neurons (α-Syn aggregated neurons) | capture of a-Syn aggregates (a-Syn aggregates) | costaining with p-α-Syn S129 (p-α-Syn S129) |
| --- | --- | --- | --- | --- | --- |
| Cc1cc2nc(/C=C/c3ccc(O)c(N)c3)sc2cc1N(C)CCOCCF [Compound C, (E)-2-amino-4-(2-(6-((2-(2-fluoroethoxy)ethyl)(methyl)amino)-5-methylbenzo[d]thiazol-2-yl)vinyl)phenol] | 2.00 | 626 | selectively yielded positive signals | sensitively captured a-Syn aggregates | costained |
| COc1c(/C=C/c2nc3cc(C)c(N(C)CCOCCF)cc3s2)ccc(O)c1Br [Compound E, (E)-2-bromo-4-(2-(6-((2-(2-fluoroethoxy)ethyl)(methyl)amino)-5-methylbenzo[d]thiazol-2-yl)vinyl)-3-methoxyphenol] | 2.34 | 36.5 | selectively yielded positive signals | sensitively captured a-Syn aggregates | costained |
| CCN(CCOCCF)c1cc2sc(/C=C/c3ccc(O)c(Br)c3)nc2cc1C [Compound R, (E)-2-bromo-4-(2-(6-(ethyl(2-(2-fluoroethoxy)ethyl)amino)-5-methylbenzo[d]thiazol-2-yl)vinyl)phenol] | 32.13 | 2600 | selectively yielded positive signals | sensitively captured a-Syn aggregates | costained |
